# Marks after values point to notes of the source that are not given here.
# What was measured:
# [1] = test system: Propionibacterium acnes NCTC 737; assay: Minimum inhibitory concentration (MIC) assay; format: cell-based; details: P. acnes NCTC 737
# Experimental: (§1) The test organism used was Propionibacterium acnes NCTC 737. This is a propionibacterial strain and is the type strain of the […]; it is fully susceptible to antibiotics. The propionibacteria are clinically significant due to their involvement in acne. They are also opportunistic pathogens in compromised hosts. Activity observed against these micro-organisms is expected to be a good predictor of activity against acne.
# (§2) The propionibacteria were cultured and maintained on Wilkins-Chalgren Anaerobe Medium (agar and broth) at pH 6.0; all cultures were incubated anaerobically at 37° C. for 72 hours.
# This is a standard international method for quantitatively assessing the antimicrobial activity of a compound/formulation in a liquid medium. The method used a sterile 96-well microtitre plate, capable of holding about 200 μl of liquid per well. The wells contained liquid culture medium and ranges of decreasing concentrations of the relevant test compound/formulation (in this case reported as the relative concentration of the active molecule—copper usnate—in the formulations) in doubling dilutions (eg 1000, 500, 250, 125 . . . μg/ml, etc, down to 0.49 μg/ml). The culture media were as described above.
# The wells were inoculated with a liquid suspension of freshly grown micro-organism and incubated under the conditions described above. After incubation, the microtitre plate was examined visually for cloudiness in each well, which would indicate microbial growth. The MIC value was recorded as the lowest concentration of test compound/formulation required to inhibit microbial growth, ie the lowest concentration for which the liquid in the well remained clear.
# The assays included both negative (culture medium with no micro-organisms) and positive (culture medium plus diluting solvent plus micro-organism) controls.
# [2] = test system: Propionibacterium acnes NCTC 737; assay: Minimum biocidal concentration (MBC) assay; format: cell-based; details: P. acnes NCTC 737
# Experimental: as §1, §2
# This assay, normally carried out after an MIC assay, determines the minimum concentration of a compound or formulation that is lethal to the test micro-organism.
# These samples were then individually sub-cultured on antibiotic-free agar medium, under the incubation conditions described above. Following incubation they were examined visually for microbial growth.
# The ratio of MIC to MBC should ideally be as close to 1 as possible. This facilitates selection of the lowest possible effective concentration of a test compound or formulation, with a reduced risk of selecting a sub-lethal concentration which could promote resistance or allow the target microbial population to recover.
# S. aureus ATCC 29213 [3] = assay: MIC against S. aureus; format: cell-based
# S. aureus ATCC 29213 [4] = assay: MBC against S. aureus; format: cell-based
# [5] = test system: Corynebacterium striatum NCTC 764; assay: MIC against Corynebacterium striatum; format: cell-based
# [6] = test system: Corynebacterium striatum NCTC 764; assay: MBC against Corynebacterium striatum; format: cell-based
# P. acnes NCTC 737 = assay: Synthetic sebum time-to-kill assay; format: cell-based, Propionibacterium acnes; details: 49 μg/mL Cu usnate (equivalent)
# Experimental: This quantitative assay was designed to assess the level of kill of a P. acnes culture in a synthetic sebum (non-aqueous environment) over a defined time period, in this case 4 hours. A culture of P. acnes NCTC 737 was inoculated into a synthetic sebum (a liquid mixture of lipid components designed to simulate human sebum) containing the relevant test compound or formulation diluted in 1-octanol. From this culture, samples were taken after 4 hours, 10-fold serially diluted in wash fluid (0.075 M sodium phosphate buffer, pH 7.9, 0.1% v/v Triton™-X 100) and inoculated onto agar plates (in triplicate). The plates were then incubated as described above and subsequently examined visually for growth. The numbers of viable microbial colonies on the plates were counted with the aid of a colony counter and converted to colony-forming units per ml (cfu/ml) using the appropriate dilution factor. Cell counts conducted in the absence of formulations (but still in the presence of 1-octanol) acted as positive controls. All experiments were conducted in triplicate.
structure (smiles),measurement,setting,value
"CC(=O)c1c([O-])c(C)c([O-])c2c1OC1=CC(=O)C(C(C)=O)C(=O)C12C.[Cu+2] (stereo not drawn) [Copper usnate, copper (II) di-usnate]",MIC:MBC ratio,[1]; Example 13,0.25
same,MIC,"[1]; Example 13, formulations as Cu usnate equivalent, anaerobic 37° C. 72 hours",0.24 µg/mL
same,minimum inhibitory concentration (MIC),[1]; found by the present inventors,0.49 µg/mL
same,MBC,"[2]; Example 13, formulations as Cu usnate equivalent",0.98 µg/mL
same,minimum biocidal concentration (MBC),[2]; found by the present inventors,3.9 µg/mL
same,MIC,S. aureus ATCC 29213 [3],7.8 µg/mL
same,MBC,S. aureus ATCC 29213 [4],62.5 µg/mL
same,MIC,[5],3.9 µg/mL
same,MBC,[6],62.5 µg/mL
same,Log10 cfu/ml (T0 hours),P. acnes NCTC 737; T0 hours,7.97 Log10 cfu/ml
same,Log10 change,P. acnes NCTC 737; T0 to T4 hours,−4.97 Log10
same,Log10 cfu/ml (T4 hours),"P. acnes NCTC 737; T4 hours, lowest detectable level = 3.0 Log10 cfu/ml",≤ 3.0* Log10 cfu/ml

# From patent US20140057976A1, “USNIC ACID TOPICAL FORMULATION” (EVOCUTIS PLC, priority 2011, published 2014)
